The EC50 is the concentration giving half of the maximal effect. Usually EC90 stands for the concentration needed for an effect of 90%. In general, Cmax refers to the peak of the concentration-time curve.

≈ marks a conversion by molar mass, not a printed value. Calls of active or inactive are those of the source. The rule behind the calls is not given here. Where only a bound is given, the exact number is not on record here.

Here are results for 20 molecules from ChEMBL document CHEMBL3102761, “Discovery of Clinical Candidate GSK1842799 As a Selective S1P1 Receptor Agonist (Prodrug) for Multiple Sclerosis” (ACS Med Chem Lett, 2013).

The species named for data set [1] is Homo sapiens. In words: Selectivity ratio for S1P3R (unknown origin) to S1P1R (unknown origin).
The target in data set [2] is T1, Sphingosine 1-phosphate receptor 1 (Homo sapiens, UniProt P21453). In words: Agonist activity at S1P1R (unknown origin) assessed as [33P] binding activity.
The target of data set [3] is T2, Sphingosine 1-phosphate receptor 3 (Homo sapiens, UniProt Q99500). In words: Agonist activity at S1P3R (unknown origin) assessed as [33P] binding activity.
Target sequence in this assay (Q99500 whole entry, looked up): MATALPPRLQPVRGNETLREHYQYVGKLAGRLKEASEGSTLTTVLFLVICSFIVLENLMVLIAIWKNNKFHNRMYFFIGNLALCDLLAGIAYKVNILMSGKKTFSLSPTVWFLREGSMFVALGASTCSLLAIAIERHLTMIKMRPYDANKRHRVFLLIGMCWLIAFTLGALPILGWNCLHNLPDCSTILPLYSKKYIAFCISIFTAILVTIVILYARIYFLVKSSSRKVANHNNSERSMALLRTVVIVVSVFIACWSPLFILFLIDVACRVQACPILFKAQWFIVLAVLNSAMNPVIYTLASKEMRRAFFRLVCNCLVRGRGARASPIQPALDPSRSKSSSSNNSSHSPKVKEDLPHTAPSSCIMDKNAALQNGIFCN
Data set [4] concerns the target T1, Sphingosine 1-phosphate receptor 1. In words: Agonist activity at human S1P1R expressed in HEK293T cells assessed as [35S]GTPgammaS binding after 30 mins by scintillation counting. Type of data set: functional, cell-based, HEK-293T.
The target in data set [5] is Sphingosine 1-phosphate receptor 5 (Homo sapiens, UniProt Q9H228). In words: Agonist activity at human S1P5R expressed in HEK293T cells assessed as [35S]GTPgammaS binding after 30 mins by scintillation counting. Type of data set: functional, cell-based, HEK-293T. For orientation: Binding of GTPγS marks nucleotide exchange on a G protein.
Data set [6] addresses T2, Sphingosine 1-phosphate receptor 3. In words: Agonist activity at human S1P3R expressed in HEK293T cells assessed as [35S]GTPgammaS binding after 30 mins by scintillation counting. The class given is functional, cell-based, HEK-293T.
Target sequence in this assay (Q99500 whole entry): as the sequence (Q99500 whole entry, looked up) above
The species entered for data set [7] is Homo sapiens. Description: Selectivity ratio of EC50 for S1P3R (unknown origin) to EC50 for S1P1R (unknown origin).
Data set [8] relates to Mus musculus. In words: Induction of lymphopenia in C57BL/6 mouse at 10 mg/kg, po at 6 hrs post-dose.
In data set [9] the target is T3, Sphingosine 1-phosphate receptor 4 (Homo sapiens, UniProt O95977).
T3 sequence (O95977 whole entry): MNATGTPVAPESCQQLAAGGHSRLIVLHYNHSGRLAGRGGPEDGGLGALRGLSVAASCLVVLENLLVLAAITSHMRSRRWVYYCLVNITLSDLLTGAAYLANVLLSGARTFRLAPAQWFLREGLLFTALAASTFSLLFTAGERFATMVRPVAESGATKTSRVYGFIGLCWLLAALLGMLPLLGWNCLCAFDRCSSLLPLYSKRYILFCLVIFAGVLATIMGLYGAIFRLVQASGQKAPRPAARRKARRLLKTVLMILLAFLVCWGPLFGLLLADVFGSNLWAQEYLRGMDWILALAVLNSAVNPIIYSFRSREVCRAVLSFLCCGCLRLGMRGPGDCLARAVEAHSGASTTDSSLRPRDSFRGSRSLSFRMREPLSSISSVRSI
Description: Agonist activity at human S1P4R expressed in HEK293T cells assessed as [35S]GTPgammaS binding after 30 mins by scintillation counting. Type of data set: functional, cell-based, HEK-293T.

The test system of a further data set is Caco-2. In words: Permeability across human Caco2 cells. The class given is ADME, cell-based. A general note: Caco-2 cells form a polarised layer with tight junctions and transporters.
The next data set concerns Cynomolgus monkey. In words: Induction of […] in po dosed cynomolgus monkey. Type of data set: functional, Macaca fascicularis.
Data set [10] has as its system Plasma. Description: Plasma concentration in rat assessed as phosphorylated compound at 3 mg/kg, po administered as single dose. Type of data set: ADME, organism-based. Set-up: dose 3 mg/kg, route oral. Conditions: in vivo.
The test system of data set [11] is Liver microsome. In words: Metabolic stability in human liver microsomes. The class given is ADME.
Data set [12] deals with Mus musculus. In words: Induction of lymphopenia in po dosed C57BL/6 mouse measured at 6 hrs post-dose relative to vehicle-treated control. The class given is functional, organism-based.
Data set [13] relates to Mus musculus. Description: Reduction in clinical symptoms in MOG peptide experimental autoimmune encephalitis (EAE) mouse multiple sclerosis disease model at 3 mg/kg, po qd. The class given is functional, organism-based. Further details: dose 3 mg/kg.
The nature of data set [14]: Metabolic stability in cynomolgus monkey liver microsomes. Type of data set: ADME, Macaca fascicularis, Microsome. Background: Liver microsomes are vesicles of endoplasmic reticulum, rich in cytochrome P450 enzymes.
In data set [15] the test system is Mus musculus. Description: Induction of lymphopenia in C57BL/6 mouse at 0.1 mg/kg, po at 6 hrs post-dose relative to vehicle-treated control. The class given is functional, organism-based. Set-up: dose 0.1 mg/kg.
Data set [16] is described as follows: Inhibition of CYP450 (unknown origin). The class given is ADME. Particulars: human.
For data set [17], the system named is Plasma. In words: Plasma concentration in cynomolgus monkey assessed as phosphorylated compound at 3.8 mg/kg, po administered as single dose. The class given is ADME, organism-based, Macaca fascicularis. Set-up: dose 3.8 mg/kg, route oral. Particulars: in vivo.
A short description of data set [18]: Aqueous solubility of the compound. The class given is physicochemical. Conditions: buffer.
Data set [19] has as its system Liver microsome. In words: Metabolic stability in rat liver microsomes. The class given is ADME.
Data set [20] can be described thus: Cmax in cynomolgus monkey at 3.8 mg/kg, po administered as single dose. The class given is ADME, organism-based, Macaca fascicularis. Conditions: in vivo. Further details: dose 3.8 mg/kg, route oral.
For data set [21], the system named is Liver microsome. In words: Metabolic stability in dog liver microsomes. The class given is ADME, Canis lupus familiaris.
The subject of data set [22] is Plasma. In words: Plasma concentration in dog assessed as phosphorylated compound at 5 mg/kg, po administered as single dose. The class given is ADME, organism-based, Canis lupus familiaris. Further details: dose 5 mg/kg, route oral. Conditions: in vivo.
Data set [23] is filed under the species Homo sapiens. In words: Selectivity ratio for human Sphk1 to human Sphk2.

T1 sequence (P21453 whole entry): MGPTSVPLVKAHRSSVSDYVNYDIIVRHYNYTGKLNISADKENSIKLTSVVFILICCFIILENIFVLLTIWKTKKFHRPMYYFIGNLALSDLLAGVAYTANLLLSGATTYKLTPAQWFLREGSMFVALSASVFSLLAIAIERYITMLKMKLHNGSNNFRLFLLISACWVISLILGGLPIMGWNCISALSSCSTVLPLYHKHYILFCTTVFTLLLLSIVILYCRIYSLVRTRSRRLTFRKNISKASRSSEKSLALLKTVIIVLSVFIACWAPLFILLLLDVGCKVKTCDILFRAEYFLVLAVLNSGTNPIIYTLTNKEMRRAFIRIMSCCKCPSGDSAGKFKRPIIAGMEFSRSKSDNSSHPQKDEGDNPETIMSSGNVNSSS
Chain of Sphingosine 1-phosphate receptor 5 (Q9H228 whole entry): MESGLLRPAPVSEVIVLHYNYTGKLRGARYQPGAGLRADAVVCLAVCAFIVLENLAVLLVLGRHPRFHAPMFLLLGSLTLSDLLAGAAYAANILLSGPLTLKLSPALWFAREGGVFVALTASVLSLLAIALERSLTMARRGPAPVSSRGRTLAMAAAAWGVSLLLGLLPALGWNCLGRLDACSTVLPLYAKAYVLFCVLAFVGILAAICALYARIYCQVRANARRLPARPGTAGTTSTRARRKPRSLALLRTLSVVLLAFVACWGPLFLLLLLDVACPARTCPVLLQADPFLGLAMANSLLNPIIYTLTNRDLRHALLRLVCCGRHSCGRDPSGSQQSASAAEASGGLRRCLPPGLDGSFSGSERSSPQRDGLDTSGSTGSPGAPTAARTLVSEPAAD

For the molecule `C[C@](N)(COP(=O)(O)O)c1nc(-c2ccc(OCc3ccc(-c4ccccc4)cc3)c(C(F)(F)F)c2)c[nH]1`, the Selectivity ratio in the data set listed under Homo sapiens [1] came to 8860. The Activity in [2] stood at 0.83 nM; in [3], 7.35 µM.
Turning to `NC(CO)(COP(=O)(O)O)c1nc(-c2ccc(OCc3ccc(-c4ccccc4)cc3)c(C(F)(F)F)c2)c[nH]1` (centres undefined), the Selectivity ratio in the data set filed under Homo sapiens [1] was greater than 4350. Also, the Activity is 2.3 nM in data set [2] and greater than 10 µM in data set [3].
As to `CCCCCCCCOc1ccc(-c2cnc([C@@](C)(N)COP(=O)(O)O)s2)cc1C(F)(F)F`, the EC50 was 0.44 nM in [4], 2 nM in [5], greater than 3000 nM in [6] and 3.6 nM in [9]. In addition, the Selectivity ratio in the data set listed under Homo sapiens [1] is 1670. Also, the Activity is 0.18 nM in data set [2], 98% in the data set with Mus musculus [8] and 0.3 µM in data set [3]. Further, the Ratio EC50 in the data set listed under Homo sapiens [7] is greater than 6800.
For `Cc1nc([C@@](C)(N)COP(=O)(O)O)[nH]c1-c1ccc(OCc2ccc(-c3ccccc3)cc2)c(C(F)(F)F)c1`, in the data set listed under Homo sapiens [1], the Selectivity ratio came to 11900. The Activity turned out to be 0.65 nM in data set [2] and 7.67 µM in data set [3].
For the molecule `CCCCCCCCOc1ccc(-c2nnc([C@@](C)(N)CO)s2)cc1C(F)(F)F`, the permeability entry in the data set with Caco-2 was “permeable”. In the data set with Cynomolgus monkey, this molecule showed an EC90 of 0.0162 µg/mL (≈ 0.0375 µM). In addition, the Cp in the data set with Plasma [10], in the data set with Plasma [17] and in the data set on Plasma [22] was 10 ng/mL throughout. Further, the Stability entry (in the data set with Liver microsome [11]; in data set [14]; with Liver microsome [19]; with Liver microsome [21]) was “Stable” each time. The Activity result in the data set with Mus musculus [12] is “Dose-dependent effect”. The result in the data set on Mus musculus [13] and in the data set on Mus musculus [15] was Active. In addition, in data set [16], the “inhibition (INH)” value is listed as “Not Active”. In addition, in [18], the solubility entry is on record as “soluble”. In data set [20], the highest level (Cmax) was 50.9 ng/mL.
Turning to `CCCCCCCCOc1ccc(-c2nnc([C@@](C)(N)COP(=O)(O)O)o2)cc1C(F)(F)F`, the Selectivity ratio in the data set listed under Homo sapiens [1] was greater than 359. In addition, the Activity was 27.8 nM in [2] and greater than 10 µM in data set [3].
For `CCCCCCCCOc1ccc(-c2cnc([C@@](C)(N)COP(=O)(O)O)[nH]2)cc1C(F)(F)F`, the Selectivity ratio in the data set filed under Homo sapiens [1] was determined as 3340. The Activity came to 1.46 nM in [2] and 4.87 µM in [3].
Consider `C[C@](N)(COP(=O)(O)O)c1nc(-c2ccc(OCc3ccc(-c4ccccc4)cc3)c(C(F)(F)F)c2)cs1`, for which the Selectivity ratio in the data set listed under Homo sapiens [1] was greater than 6250. Also, the Activity is 1.6 nM in [2] and greater than 10 µM in [3].
As for `Cc1oc([C@@](C)(N)COP(=O)(O)O)nc1-c1ccc(OCc2ccc(-c3ccccc3)cc2)c(C(F)(F)F)c1`, in the data set filed under Homo sapiens [1], the Selectivity ratio was greater than 5000. Also, the Activity in [2] is 2.1 nM; in data set [3], greater than 10 µM.
`CCCCCCCCc1ccc(CCC(N)(CO)CO)cc1`: in the data set with Mus musculus [13], the outcome was Active. Besides, the Selectivity ratio in the data set listed under Homo sapiens [23] was 30.
With `CCCCCCCCOc1ccc(-c2nnc([C@@](C)(N)COP(=O)(O)O)s2)cc1C(F)(F)F`, the EC50 in data set [4] was 0.26 nM; in data set [5], 0.66 nM; in [6], greater than 3000 nM; in data set [9], 4.57 nM. The Selectivity ratio in the data set filed under Homo sapiens [1] stood at 3290. In addition, the Activity came out at 0.52 nM in data set [2], 119% in the data set with Mus musculus [8] and 1.9 µM in data set [3]. Also, the Ratio EC50 in the data set listed under Homo sapiens [7] is greater than 11500.
`CCCCCCCCOc1ccc(-c2cnc([C@@](C)(N)CO)s2)cc1C(F)(F)F`: the permeability entry in the data set on Caco-2 is given as “permeable”. For the same molecule, the Activity entry in the data set with Mus musculus [12] is “Dose-dependent effect”. Besides, the result in the data set with Mus musculus [13] and in the data set on Mus musculus [15] was Active. Moreover, the Stability entry (in data set [14]; in the data set with Liver microsome [19]; in the data set with Liver microsome [21]) was “Stable” in each case. For the same molecule, the “inhibition (INH)” value in data set [16] is on record as “Not Active”. Further, the solubility entry in data set [18] is “soluble”.
As to `CCCCCCCCOc1ccc(-c2cc([C@@](C)(N)COP(=O)(O)O)[nH]n2)cc1C(F)(F)F`, the Selectivity ratio in the data set filed under Homo sapiens [1] is greater than 12000. The figures for the Activity in data set [2] and in data set [3] were 0.83 nM and greater than 10 µM, respectively.
For `C[C@](N)(COP(=O)(O)O)c1ncc(-c2ccc(OCc3ccc(-c4ccccc4)cc3)c(C(F)(F)F)c2)s1`, the Selectivity ratio in the data set filed under Homo sapiens [1] turned out to be 1190. The figures for the Activity in data set [2] and in data set [3] were 0.73 nM and 0.867 µM, respectively.
Regarding `CCCCCCCCCCCCC/C=C/[C@@H](O)[C@@H](N)COP(=O)(O)O`, the EC50 in data set [4] is 4.25 nM; in data set [6], 3.94 nM; in [9], 13 nM.
In the case of `CCCCCCCCOc1ccc(-c2cc([C@@](C)(N)COP(=O)(O)O)on2)cc1C(F)(F)F`, the Selectivity ratio in the data set filed under Homo sapiens [1] amounted to 1210. Besides, the results for the Activity in [2] and in [3] were 0.14 nM and 0.17 µM, respectively.
For the molecule `CCCCCCCCOc1ccc(-c2noc([C@@](C)(N)COP(=O)(O)O)n2)cc1C(F)(F)F`, the Selectivity ratio in the data set listed under Homo sapiens [1] is greater than 5260. Besides, the Activity in [2] was 1.9 nM; in data set [3] it was greater than 10 µM.
With `C[C@](N)(COP(=O)(O)O)c1nnc(-c2ccc(OCc3ccc(-c4ccccc4)cc3)c(C(F)(F)F)c2)s1`, the Selectivity ratio in the data set filed under Homo sapiens [1] was found to be 2540. Also, the Activity in data set [2] stood at 1.77 nM; in data set [3], 4.5 µM.
With `N[C@@H](COP(=O)(O)O)c1nc(-c2ccc(OCc3ccc(-c4ccccc4)cc3)c(C(F)(F)F)c2)c[nH]1`, the Selectivity ratio in the data set listed under Homo sapiens [1] worked out at 2170. For the same molecule, the Activity was found to be 0.3 nM in data set [2] and 0.65 µM in data set [3].
For `C[C@](N)(COP(=O)(O)O)c1ncc(-c2ccc(OCc3ccc(-c4ccccc4)cc3)c(C(F)(F)F)c2)o1` the same measures were greater than 8000, 1.1 nM and greater than 10 µM.
